The text below walks through data of publication PMC9686139, “Furanoditerpenes from Spongia (Spongia) tubulifera Display Mitochondrial-Mediated Neuroprotective Effects by Targeting Cyclophilin D” (ACS Chemical Neuroscience, 2022).

Each structure is given as a SMILES string.

For one series, the system named is CypD. Nature of the series: CypD expression by Western blot. Conditions: compound 0.001 μM + 150 μM H2O2, 6 h; % of H2O2 control cells. In general terms: A western blot detects proteins with antibodies after separation by electrophoresis.
For another series, the target named is human CypD (Homo sapiens, UniProt P30405). Nature of the series: Surface plasmon resonance binding to immobilized CypD. Conditions: for selectivity between CypD and CypA (KD values): CypD versus CypA; for kon: read-out: ka, CypD. (In general: SPR reads the build-up and loss of mass on a sensor chip optically.)
Sequence of human CypD (P30405 30-207): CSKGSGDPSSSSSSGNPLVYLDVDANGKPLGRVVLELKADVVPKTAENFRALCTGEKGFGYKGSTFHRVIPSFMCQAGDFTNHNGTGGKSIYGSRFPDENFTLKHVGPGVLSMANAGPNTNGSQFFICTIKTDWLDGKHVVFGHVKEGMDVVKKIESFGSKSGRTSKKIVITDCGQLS
Another series has as its system human cancer cell lines. The arrangement: method as in PMID 31315183. Conditions: previous studies; cited from earlier work.
The subject of series [1] is SH-SY5Y cells. Nature of the series: Cell viability in H2O2 oxidative stress model, MTT assay. It counts as cell-based, human. Conditions: 150 μM H2O2, 6 h; 0.001-1 μM. As to the method:
First, the capacity of 1–5 to improve cell survival under oxidative stress conditions was determined with the MTT assay (Figure 2). […] When cells were injured with the oxidant specie, a decrease in the cell viability of 23.6 ± 3.5% (p < 0.05) was observed.
Figure 2 Effect of compounds on the cell viability of SH-SY5Y cells. Compounds were added to human neuroblastoma cells for 6 h with and without 150 μM H2O2, and cell viability was evaluated with the MTT assay. Results of (a) compound 1, (b) compound 2, (c) compound 3, (d) compound 4, and (e) compound 5. Vitamin E (Vit E) at 25 μM was used as a positive control in oxidative stress assays. Mean ± standard error of the mean (SEM) of three experiments performed in triplicate. Data expressed as the percentage of control cells, compared by one-way analysis of variance (ANOVA) and Dunnett’s tests. ^#p < 0.05 compared to untreated control cells. *p < 0.05 and **p < 0.01 compared to cells treated with H2O2 alone. […]
The ability of compounds to protect cell viability from H2O2 was evaluated with 3-(4,5-dimethylthiazol-2-yl)-2,5-diphenyltetrazolium bromide (MTT) test. […] The absorbance of formazan crystals was measured at 595 nm with a plate reader. Saponin at 40 mg/mL was used as the death control, and its absorbance value was subtracted from the other data.
(In general: Formazan colour is commonly taken as a measure of viable cells.)

The subject of series [2] is SH-SY5Y cells. Nature of the series: Mitochondrial membrane potential (ΔΨm), TMRM dye. In kind it is cell-based, human. Conditions: 150 μM H2O2, 6 h; compound 0.001 μM; percentage of control cells. As to the method:
Since mitochondria are key players in neurodegeneration, acting as main producers and targets of ROS,[16] mitochondrial function was determined by analyzing the mitochondrial membrane potential (ΔΨm) with the fluorescent dye tetramethylrhodamine methyl ester (TMRM).
Figure 3 Effect of furanoditerpenes on ΔΨm of human neuroblastoma cells. Cells were treated for 6 h with S. tubulifera metabolites with and without 150 μM H2O2, and ΔΨm was determined with the TMRM dye. (a) Compound 1, (b) compound 2, (c) compound 3, (d) compound 4, and (e) compound 5 effects. Vitamin E (Vit E) at 25 μM was used as a positive control in oxidative stress assays. Data expressed as the percentage of control cells. Mean ± SEM of three experiments performed in triplicate. Statistical differences determined by one-way ANOVA and Dunnett’s tests. ^#p < 0.05 compared to untreated control cells. *p < 0.05, **p < 0.01, and ***p < 0.01 compared to cells treated with H2O2 alone.
To determine the neuroprotective effects of compounds, SH-SY5Y cells were seeded in 384-well plates at a density of 2.5 × 10^4 cells per well. After 24 h, cells were treated with the metabolites at nontoxic concentrations (0.001–1 μM) and 150 μM H2O2 for 6 h. […]
The effects of compounds in ΔΨm were analyzed with the fluorescent dye TMRM. […] The fluorescence was read in a plate reader at 535 nm excitation and 590 nm emission. […]

The next series deals with CypA. Nature of the series: CypA expression by Western blot. Conditions: 0.001 μM, 6 h; physiological and oxidative stress (150 μM H2O2) conditions.
The subject of series [3] is SH-SY5Y cells. Nature of the series: GSH content, Thiol Tracker Violet. It counts as cell-based, human. How it is done: To confirm the antioxidant properties of S. tubulifera compounds, the levels of the most important nonenzymatic antioxidant of cells, glutathione (GSH), were assessed. […] Regarding diterpene 2, an increase in the nonenzymatic antioxidant was observed when cells were cotreated with H2O2 and this compound at 0.001 and 1 μM (p < 0.05) (Figure 5b). No effects were found after the addition of 3 (Figure 5c), but 4 and 5 presented interesting results (Figure 5d,e).
Figure 5 Effect of S. tubulifera metabolites in the GSH content of human neuroblastoma cells. SH-SY5Y cells were treated with compounds for 6 h with and without 150 μM H2O2. GSH levels were monitored with Thiol Tracker Violet dye. (a) Compound 1, (b) compound 2, (c) compound 3, (d) compound 4, and (e) compound 5 results. Vitamin E (Vit E) at 25 μM was used as a positive control. Mean ± SEM of three experiments performed in triplicate. Data presented as the percentage of untreated control cells and compared by one-way ANOVA and Dunnett’s tests. ^##p < 0.01 compared to control cells. *p < 0.05 compared to cells treated with H2O2 alone.
(§1) For these experiments, cells were seeded in 384-well plates and treated as described above. All of the assays were carried out as previously described.[15]
Thiol Tracker Violet was used to measure intracellular GSH levels, following the manufacturer’s instructions. Briefly, human neuroblastoma cells were rinsed twice with PBS and the fluorescence dye at 10 μM was added. The plate was incubated for 30 min at 37 °C and 300 rpm, and the fluorescence was measured at 404 nm excitation and 526 nm emission in a plate reader. All experiments were performed three independent times in triplicate.

In the next series the target is Human CypA (Homo sapiens, UniProt P62937). Nature of the series: Surface plasmon resonance binding to immobilized CypA. Conditions: for Kd: CypA, SPR, 1:1 Langmuir model, PBS-T pH 7.2, 24 °C; for kon: read-out: ka, CypA.
Sequence of Human CypA (P62937 whole entry): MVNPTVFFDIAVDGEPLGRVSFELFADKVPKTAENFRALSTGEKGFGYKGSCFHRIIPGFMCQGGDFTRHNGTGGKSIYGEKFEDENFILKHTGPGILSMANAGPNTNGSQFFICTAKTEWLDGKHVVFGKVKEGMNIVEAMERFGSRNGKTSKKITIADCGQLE
Series [4] relates to SH-SY5Y cells. Nature of the series: ROS intracellular levels, carboxy-H2DCFDA. In kind it is cell-based, human. Conditions: for effect on ROS content: cotreatment with 150 μM H2O2, 6 h. How it is done: Next, the capacity of S. tubulifera metabolites to decrease ROS intracellular levels was evaluated (Figure 4). […] Regarding the oxidative stress model, H2O2 augmented the levels of oxidant molecules up to 125.1 ± 2.4% (p < 0.01) and the known antioxidant Vit E, used as a positive control, induced a reduction in ROS release of 24% with respect to cells treated only with H2O2 (p < 0.05).
Figure 4 ROS intracellular levels after treatment with compounds. Furanoditerpenes were added for 6 h in the absence and presence of 150 μM H2O2. Then, the ROS content was measured with the fluorescent dye 5-(and-6)-carboxy-2′,7′-dichlorodihydrofluorescein diacetate (carboxy-H2DCFDA). Results from (a) 1, (b) 2, (c) 3, (d) 4, and (e) 5. Vitamin E (Vit E) at 25 μM was used as a positive control. Data expressed as the percentage of untreated control cells. Mean ± SEM of three experiments performed in triplicate. Statistical differences determined by one-way ANOVA test followed by Dunnett’s post hoc test. ^##p < 0.01 compared to control cells. *p < 0.05, **p < 0.01, and ***p < 0.01 compared to H2O2 control.
as §1
The fluorescent dye 5-(and-6)-carboxy-2′,7′-dichlorodihydrofluorescein diacetate (carboxy-H2DCFDA) was used to evaluate ROS levels. After treatment with compounds and H2O2, cells were washed twice with serum-free medium. Next, cells were loaded with 20 μM carboxy-H2DCFDA dissolved in serum-free medium, and the plate was incubated for 1 h at 37 °C and 300 rpm. Then, 100 μL of PBS were added to each well for 30 min at 37 °C and 300 rpm. After this incubation, the fluorescence was read at […].

A further series has as its system CypB. Conditions: compound alone 0.001 μM, 6 h; % of untreated control cells.
Details of series [5]: method as in doi:10.1246/cl.1987.1687. Conditions: previous studies; cited from earlier work.
Series [6] concerns mitochondrial permeability transition pore (mPTP). Nature of the series: mPTP opening, calcein-AM/CoCl2 flow cytometry. Conditions: 0.001 μM, 15 min pretreatment, TBHP 3 min.
Procedure: SH-SY5Y cells were treated for 15 min with 1–5, and 1 mM tert-butyl hydroperoxide (TBHP) was used to open the pore. Cells were loaded with calcein-AM, which accumulates in cytosol and cell compartments and with CoCl2 that quenches cytosolic fluorescence but not the mitochondrial signal.[17] Then, fluorescence was analyzed by flow cytometry (Figure 6a). […] (a) Analysis of mPTP opening. Cells were treated with compounds at 0.001 μM for 15 min, and pore opening was induced with 1 mM TBHP. Calcein-AM and CoCl2 were used to measure mPTP aperture by flow cytometry. […] Values are presented as the percentage of control cells. Data are mean ± SEM of three independent experiments. Statistical differences determined by one-way ANOVA and Dunnett’s tests. ^###p < 0.001 compared to control cells. *p < 0.05 and **p < 0.01 compared to cells treated only with TBHP.
The inhibition of mPTP by compounds was determined with the MitoProbe Transition Pore Assay Kit, as previously described.[21] For this assay, cells were seeded in 12-well plates at 5 × 10^5 cells per well and allowed to grow for 24 h. Then, SH-SY5Y cells were detached with Detachin solution (Genlatis, San Diego), washed with PBS, and resuspended in PBS buffer with 0.6 mM CaCl2. Cells were loaded with 0.01 μM calcein-AM and incubated at 37 °C for 15 min. Then, 0.4 mM CoCl2 and compounds at 0.001 μM were added and cells were incubated for 15 min at 37 °C. After this incubation, cells were centrifuged, resuspended in 100 μL of calcium-free PBS, and kept on ice. Finally, TBHP at 1 mM was added for 3 min to the cells to induce the pore opening. […] The fluorescence of 10 000 events was analyzed with IDEAS Application vs 6.0 (Amnis Corporation, Luminex Corp).
In a further series the test system is CypC. Nature of the series: CypC expression by Western blot. Conditions: 0.001 μM + 150 μM H2O2, 6 h; % of H2O2 control.

Procedure for CypB: Before starting the experiments, antibody specificity was determined due to the conserved structures along Cyps. […] Human neuroblastoma cells were treated with compounds at 0.001 μM for 6 h, and Cyps expression was determined by Western blot (Figure 10).
SH-SY5Y cells were treated with 1–5 at 0.001 μM for 6 h, and their effects on Cyps expression were determined by Western blot. […] Protein band expression was normalized by actin levels. Results expressed as the percentage of untreated control cells or as the percentage of H2O2 control. Mean ± SEM of three replicates carried out in duplicate. Statistical differences determined by one-way ANOVA and Dunnett’s tests. ^#p < 0.05 and ^##p < 0.01 compared to control cells. *p < 0.05, **p < 0.01, and ***p < 0.01 compared to cells treated with H2O2 alone.
SH-SY5Y cells were cultured in 12-well plates at 1 × 10^6 cells per well and allowed to settle down for 24 h. Then, cells were treated with compounds at 0.001 μM for 6 h and oxidative damage was induced with 150 μM H2O2.
Cells were washed twice with ice-cold PBS, and a hypotonic solution was added (20 mM tris–HCl pH 7.4, 10 mM NaCl, and 3 mM MgCl2, containing phosphatase and protease inhibitor cocktail). […] The supernatant was collected as the cytosolic fraction, and protein concentration was quantified with the Direct Detect instrument (Merck Millipore, Darmstadt, Germany).[15] […]
Procedure for CypC: Human neuroblastoma cells were treated with compounds at 0.001 μM for 6 h, and Cyps expression was determined by Western blot (Figure 10). […] SH-SY5Y cells were treated with 1–5 at 0.001 μM for 6 h, and their effects on Cyps expression were determined by Western blot. […] Protein band expression was normalized by actin levels. Results expressed as the percentage of untreated control cells or as the percentage of H2O2 control. Mean ± SEM of three replicates carried out in duplicate. Statistical differences determined by one-way ANOVA and Dunnett’s tests. ^#p < 0.05 and ^##p < 0.01 compared to control cells. *p < 0.05, **p < 0.01, and ***p < 0.01 compared to cells treated with H2O2 alone. […]
Cells were washed twice with ice-cold PBS, and a hypotonic solution was added (20 mM tris–HCl pH 7.4, 10 mM NaCl, and 3 mM MgCl2, containing phosphatase and protease inhibitor cocktail). […] The supernatant was collected as the cytosolic fraction, and protein concentration was quantified with the Direct Detect instrument (Merck Millipore, Darmstadt, Germany).[15]
Electrophoresis was resolved in 4–20% sodium dodecyl sulfate polyacrylamide gels (Biorad, Hercules, CA), containing 15 μg of cytosolic protein from each sample. […] Immunoreactive bands were detected with Supersignal West Pico Luminiscent Substrate and Supersignal West Femto Maximum Sensitivity Substrate. […]
Procedure for Human CypA: The protein was immobilized on the sensor surface by amino coupling, as described above (Figure S7), and compounds at several concentrations were added. The same conditions set for CypD were used for CypA experiments, with a flow rate of 20 μL/min and PBS-T (pH 7.2) as the running buffer.
Figure 9 Binding of compounds to CypA measured by surface plasmon resonance. The left panels present association curves obtained by the addition of compounds over immobilized CypA and subtraction of their respective vehicle signal. The right panels show fitting curves for equilibrium binding. Representative graphs of one independent replicate. […] Kinetic equilibrium dissociation constants (KD) and fitting curves were obtained with TraceDrawer software.
(§2) SPR measurements were performed using the MP-SPR Navi 210A VASA instrument with SPR Navi Control software (BioNavis, Tampere, Finland). All of the analyses were carried out in three-dimensional (3D) carboxymethyl dextran hydrogel-coated (CMD-3DM) sensors (BioNavis). PBS, 0.05% Tween (pH 7.2) was used as the running buffer for sensor activation, protein immobilization, and analyte injection. All buffers were degassed and filtered by 0.22 μm before use. The flow rate and temperature were set at 20 μL/min and 24 °C, respectively. A commercial Amine Coupling Kit (Xantec bioanalytics GmbH, Düsseldorf, Germany) was used for sensor activation and Cyps immobilization. The chip surface was preconditioned with 2 M NaCl and 0.01 M NaOH. Then, the surface was activated by the addition of 0.2 M 1-ethyl-3-(3-dimethylaminopropyl)carbodiimide hydrochloride (EDC) and 0.05 M N-hydroxysuccinimide (NHS). After activation, 50 μg/mL of CypA or CypD dissolved in 5 mM sodium acetate buffer (pH 4.5) were injected for immobilization on the sensor surface. […] Compound injections were performed in serial mode, and the reference channel signal was subtracted from the analyte sensorgram. Data were processed with MP-SPR Navi Data Viewer (BioNavis), and KD values were obtained using the 1:1 Langmuir model with mass transport considerations of TraceDrawer software (RidgeView Instruments Ab, Uppsala, Sweden). All of the experiments were performed three independent times.
Procedure for human CypD: With this objective, surface plasmon resonance (SPR) experiments were performed. CypD was immobilized in the sensor surface as a ligand, and 1–5 were injected as analytes. […] For immobilization, amine groups were activated with 1-ethyl-3-(3-dimethylaminopropyl)carbodiimide hydrochloride (EDC) and N-hydroxysuccinimide (NHS) and 50 μg/mL of human CypD dissolved in 5 mM sodium acetate (pH 4.5) was added. […] All of the assays were carried out with phosphate-buffered saline (PBS)—0.05% Tween (pH 7.2) as the running buffer, with a flow rate of 20 μL/min at 24 °C.
The left panels present association curves obtained by the addition of compounds over immobilized CypD and subtraction of their respective solvent control. The right panels show fitting curves for equilibrium binding. Representative graphs of one independent replicate. […] All injections were performed using PBS, 0.05% Tween (pH 7.2) as the running buffer. Kinetic equilibrium dissociation constants (KD) and fitting curves were obtained with TraceDrawer software.
as §2

`CC1(C)[C@@H](O)C(=O)C[C@]2(C)[C@H]3CCc4cocc4[C@]3(C)CC[C@@H]12` [Compound 1]: the “CypD expression under oxidative damage” value in the series with CypD is on record as “about 54%”. The “KD (kinetic equilibrium dissociation constant), CypD” value at human CypD (SPR, 1:1 Langmuir model, PBS-0.05% Tween pH 7.2, 24 °C) was “No binding”. Besides, at human CypD (SPR), the “selectivity between CypD and CypA (KD values)” value is listed as “selective toward CypA”. At human CypD (SPR, Table S1), the “ka, CypD” value is on record as “No binding” and the “kd, CypD” value was “No binding”. Also, the “binding to CypD” value at human CypD (SPR, up to 50 μM) is reported as “No binding”. Also, the cytotoxicity entry in the series on human cancer cell lines is on record as “weak cytotoxicity”. Further, the “protection of cell viability from H2O2 damage” value in the series on SH-SY5Y cells [1] was “not able to protect”. The ΔΨm in the series on SH-SY5Y cells [2] was found to be 96.7 ± 5.4%. In the series with CypA, the “effect on CypA expression” value was “decreased its expression”. Further, in the series with SH-SY5Y cells [3] (compound alone and with 150 μM H2O2, 6 h), the “effect on GSH content” value is “did not affected the GSH content”. Further, on Human CypA, the Kd (usually a measure of binding affinity in units of concentration) amounted to 15.2 ± 1.31 µM and the kon is 682 M⁻¹ s⁻¹. Moreover, the “SPR signal, CypA” value on Human CypA (at 50 μM) was 9.9 mdeg. In addition, the “effect on ROS content” value in the series with SH-SY5Y cells [4] (all four concentrations 0.001-1 μM) is recorded as “significant decrease”.
Consider `C[C@]12CC(=O)[C@H](O)[C@](C)(CO)[C@@H]1CC[C@@]1(C)c3cocc3CC[C@H]21` [Compound 4, epispongiadiol], for which the “CypD expression under oxidative damage” value with CypD is on record as “about 54%”. In addition, on human CypD, the Kd came to 30.4 ± 0.87 µM and the kon stood at 738 M⁻¹ s⁻¹. The cytotoxicity result in the series on human cancer cell lines is reported as “weak cytotoxicity”. The compound also showed a CypB expression in the series with CypB of 48.54 ± 11.4%. The antiviral activity result in series [5] is listed as “antiviral activity”. Further, in [6], the “inhibition of mPTP opening after oxidative injury” value is recorded as “able to inhibit mPTP opening”. On Human CypA, the Kd came to 27.4 ± 3.68 µM and the kon was 861 M⁻¹ s⁻¹.
On to `CC1(C)C(=O)C(O)=C[C@]2(C)[C@H]3CCc4cocc4[C@]3(C)CC[C@@H]12` [Compound 2], for which, in the series with CypD, the “CypD expression under oxidative damage” value is on record as 37.9 ± 17.9%. Moreover, on human CypD, binding was characterised by a dissociation constant (Kd) of 2.53 ± 0.006 µM and the kon worked out at 10000 M⁻¹ s⁻¹. In addition, the “selectivity between CypD and CypA (KD values)” value on human CypD (SPR) is reported as “selectivity toward the mitochondrial isoform”. The “CypC expression under oxidative injury” value in the series on CypC worked out at 24.3 ± 2.9%. Also, the “effect on GSH content” value in the series with SH-SY5Y cells [3] (cotreated with 150 μM H2O2, 6 h, at 0.001 and 1 μM) is listed as “increase”. Also, at Human CypA, the Kd came out at 14.7 ± 1.08 µM and the kon was 1320 M⁻¹ s⁻¹. For the same compound, the ROS levels in the series on SH-SY5Y cells [4] (150 μM H2O2, 6 h, compound 0.1 μM, percentage of untreated control cells) is on record as 89.9 ± 5.7%. Besides, the “effect on ROS content” value in the series on SH-SY5Y cells [4] (at 0.001, 0.1 and 1 μM) is “reduced the levels”.
